In patent publication US10221163B2 (priority 2015, dated 2019):
Where two headings read alike, the source gives them in different places.

How the values were obtained:
[1] = molecular target: NDM-1 (Klebsiella pneumoniae, UniProt C7C422); assay: biochemical; format: biochemical; conditions: fluorescence assay, CCF2-FA substrate, 1 pM enzyme, 2 hours at 25° C.; read-out: NDM-1 IC50
Method in brief: (§1)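 IC50 values derive from 4-parameter fits of percent inhibition against inhibitor concentration on semi-log axes. Activity was monitored by fluorescence with the CCF2-FA substrate after a 2-hour, 25° C incubation of compound, enzyme and substrate.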

[2] = molecular target: IMP-1 (Serratia marcescens, UniProt P52699); assay: biochemical; format: biochemical; conditions: fluorescence assay, CCF2-FA substrate, 2 pM enzyme, 2 hours at 25° C.; read-out: IMP-1 IC50
Sequence of IMP-1 (P52699 whole entry, looked up, species assumed): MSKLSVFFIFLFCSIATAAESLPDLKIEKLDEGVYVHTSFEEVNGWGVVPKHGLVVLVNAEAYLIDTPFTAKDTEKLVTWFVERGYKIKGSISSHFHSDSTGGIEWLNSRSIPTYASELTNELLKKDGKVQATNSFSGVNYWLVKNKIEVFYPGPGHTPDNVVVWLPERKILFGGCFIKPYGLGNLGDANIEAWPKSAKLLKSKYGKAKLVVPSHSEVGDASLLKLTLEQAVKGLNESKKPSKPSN
Method in brief: as §1

[3] = test system: Pseudomonas aeruginosa efflux− (MB9799), IMP-1; format: cell-based; conditions: efflux− MB9799; imipenem at 2 μg/mL; in the presence of a class A, C, D serine β-lactamase inhibitor closely related to relebactam
Method in brief: (§2)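 Steps: add fixed imipenem and/or ceftazidime (usually CLSI breakpoint) and fixed AmpC-directed class A/C inhibitor to microbroth MIC wells; titrate MBL inhibitor; record concentration regaining susceptibility for each PAO1-derived strain; divide efflux+ by efflux− value.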

[4] = test system: Escherichia coli expressing NDM-1 (CLB30005, CLB30016); format: cell-based; conditions: NDM-1 strain, with imipenem 1 μg/ml, 95% inhibition of growth
Method in brief: (§3)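 Clinical strains grown overnight on blood agar at 35°C, colonies suspended in saline, diluted 1:100 into 1.1×CAMHB. Test compound titrated with imipenem at 1 μg/ml; incubated 22–24 h at 35°C, growth read by absorbance.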

[5] = test system: Serratia marcescens expressing IMP-1 (CL5741); format: cell-based; conditions: IMP-1 strain CL5741, with imipenem 1 μg/ml, 95% inhibition of growth
Method in brief: as §3

[6] = test system: Klebsiella pneumoniae expressing VIM-1 (IHMA599644); format: cell-based; conditions: VIM-1 strain IHMA599644, with imipenem 1 μg/ml, 95% inhibition of growth
Method in brief: as §3

[7] = molecular target: VIM-1 (Pseudomonas aeruginosa (strain ATCC 15692 / DSM 22644 / CIP 104116 / JCM 14847 / LMG 12228 / 1C / PRS 101 / PAO1), UniProt A0A0F7KYQ8); assay: biochemical; conditions: CCF2-FA substrate, 30 pM enzyme, 2 hours at 25° C.
Method in brief: as §1

[8] = test system: Pseudomonas aeruginosa MB9798 vs MB9799; conditions: fold difference between efflux+ (MB9798) and efflux− (MB9799) strains; imipenem at 2 μg/mL
Method in brief: as §2

[9] = test system: Pseudomonas aeruginosa efflux+ (MB9798), IMP-1; format: cell-based; parameters: Concentration of metallo-β-lactamase inhibitor which restores susceptibility of efflux + (MB9798) strain to imipenem: unit not given here; conditions: efflux+ MB9798; imipenem at 2 μg/mL; in the presence of a class A, C, D serine β-lactamase inhibitor closely related to relebactam
Method in brief: as §2

[10] = fluorescence assay, read-out: VIM-1 IC50

Sequence of NDM-1 (C7C422 whole entry, looked up, species assumed): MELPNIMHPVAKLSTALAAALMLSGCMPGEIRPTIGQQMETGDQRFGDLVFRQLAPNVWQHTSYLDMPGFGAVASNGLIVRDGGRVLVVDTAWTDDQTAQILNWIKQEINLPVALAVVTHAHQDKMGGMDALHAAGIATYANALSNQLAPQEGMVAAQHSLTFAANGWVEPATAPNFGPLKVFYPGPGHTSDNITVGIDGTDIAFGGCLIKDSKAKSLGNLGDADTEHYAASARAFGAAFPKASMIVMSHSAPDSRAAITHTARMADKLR

| SMILES | IC50 [1] | IC50 [2] | Concentration of metallo-β-lactamase inhibitor which restores susceptibility of efflux − (MB9799) strain to imipenem [3] | Escherichia coli MITC95 [4] | Serratia marcescens MITC95 [5] | Klebsiella pneumoniae MITC95 [6] | IC50 [7, 10] | Efflux ratio [8] | Concentration of metallo-β-lactamase inhibitor which restores susceptibility of efflux + (MB9798) strain to imipenem [9] | IC50 ([7]; VIM-1 IC50, fluorescence assay) |
| --- | --- | --- | --- | --- | --- | --- | --- | --- | --- | --- |
| Nc1ccc(-c2ccc(S(=O)(=O)N[C@H]3CNC[C@H]3O)c(S(N)(=O)=O)c2-c2nn[nH]n2)cn1 [Example 410] | 0.322 nM | 0.681 nM | 0.7813 | 0.3906 µM | 0.7813 µM | 1.563 µM | 0.374 nM | 1.00 | 0.7813 | – |
| Nc1ccc(-c2ccc(S(=O)(=O)N[C@H]3CN[C@H](CO)C3)c(S(N)(=O)=O)c2-c2nn[nH]n2)cn1 [Example 411] | 0.117 nM | 0.408 nM | 1.563 | 0.7813 µM | 1.563 µM | 3.125 µM | 0.177 nM | 1.00 | 1.563 | – |
| NS(=O)(=O)c1c(S(=O)(=O)N[C@@H]2CNC[C@@H]2O)ccc(-c2cccc3[nH]nnc23)c1-c1nn[nH]n1 [Example 412] | 0.108 nM | 2.57 nM | 3.125 | 3.125 µM | 3.125 µM | 6.25 µM | 0.321 nM | 0.50 | 1.563 | – |
| NC[C@H](N)CNS(=O)(=O)c1ccc(-c2ccc(N)nc2)c(-c2nn[nH]n2)c1S(N)(=O)=O [Example 415] | 0.361 nM | 0.801 nM | 1.563 | 0.1953 µM | 1.172 µM | 3.125 µM | 0.425 nM | 1.00 | 1.563 | – |
| NC[C@@H](N)CNS(=O)(=O)c1ccc(-c2ccc(N)nc2)c(-c2nn[nH]n2)c1S(N)(=O)=O [Example 416] | 0.917 nM | 1.34 nM | 3.125 | 0.3906 µM | 1.563 µM | 6.25 µM | 0.68 nM | 1.00 | 3.125 | – |
| NC[C@H](O)CNS(=O)(=O)c1ccc(-c2ccc3nccn3c2)c(-c2nn[nH]n2)c1S(N)(=O)=O [Example 418] | 0.152 nM | 0.834 nM | 0.7813 | 0.3906 µM | 0.7813 µM | 1.563 µM | 0.113 nM | 2.00 | 1.563 | – |
| NC[C@@H](O)CNS(=O)(=O)c1ccc(-c2ccc3nccn3c2)c(-c2nn[nH]n2)c1S(N)(=O)=O [Example 420] | 0.23 nM | 0.974 nM | 0.7813 | 0.3906 µM | 1.563 µM | 3.125 µM | 0.125 nM | 2.00 | 1.563 | – |
| C[C@@H](N)CNS(=O)(=O)c1ccc(-c2ccc3nccn3c2)c(-c2nn[nH]n2)c1S(N)(=O)=O [Example 423] | 0.303 nM | 1.15 nM | 0.7813 | 0.3906 µM | 0.7813 µM | 1.563 µM | – | 4.00 | 3.125 | 0.18 nM |
| Nc1nc2c(-c3ccc(S(=O)(=O)N[C@@H]4CNC[C@H]4N)c(S(N)(=O)=O)c3-c3nn[nH]n3)cccc2[nH]1 [Example 424] | 0.0869 nM | 0.814 nM | 1.563 | 0.7813 µM | 1.563 µM | 1.563 µM | – | 1.00 | 1.563 | 0.301 nM |
| NC[C@@H]1C[C@@H](NS(=O)(=O)c2ccc(-c3cccc4[nH]c(N)nc34)c(-c3nn[nH]n3)c2S(N)(=O)=O)CN1 [Example 425, 4-(2-amino-1H-benzo[d]imidazol-4-yl)-N^1-((3R,5S)-5-(aminomethyl)pyrrolidin-3-yl)-3-(2H-tetrazol-5-yl)benzene-1,2-disulfonamide] | 0.0419 nM | 0.886 nM | 1.563 | 0.7813 µM | 3.125 µM | 3.125 µM | 0.16 nM | 1.00 | 1.563 | – |
| NC[C@@H](CO)NS(=O)(=O)c1ccc(-c2cccc3[nH]c(N)nc23)c(-c2nnn[nH]2)c1S(N)(=O)=O [Example 426, (S)-4-(2-Amino-1H-benzo[d]imidazol-4-yl)-N^1-(1-amino-3-hydroxypropan-2-yl)-3-(1H-tetrazol-5-yl)benzene-1,2-disulfonamide] | 0.0322 nM | 0.273 nM | 0.7813 | 0.3906 µM | 0.7813 µM | 1.563 µM | 0.168 nM | 0.50 | 0.3906 | – |
| NC[C@H](CO)NS(=O)(=O)c1ccc(-c2cccc3nc(N)[nH]c23)c(-c2nn[nH]n2)c1S(N)(=O)=O [Example 427] | 0.221 nM | 2.61 nM | 0.7813 | 0.3906 µM | 0.7813 µM | 1.563 µM | 0.547 nM | 1.00 | 0.7813 | – |
| Nc1nc(-c2cccc(-c3ccc(S(=O)(=O)N[C@@H]4CCNC4)c(S(N)(=O)=O)c3-c3nn[nH]n3)c2)c[nH]1 [Example 428] | 0.0473 nM | 0.407 nM | 0.7813 | 0.3906 µM | 0.7813 µM | 1.563 µM | – | 1.00 | 0.7813 | 0.133 nM |
| NCC(CN)NS(=O)(=O)c1ccc(-c2cccc3[nH]c(N)nc23)c(-c2nn[nH]n2)c1S(N)(=O)=O [Example 429] | 0.0819 nM | 0.489 nM | 0.7813 | 0.5208 µM | 1.563 µM | 1.563 µM | 0.228 nM | 1.00 | 0.7813 | – |
| NCC(CN)NS(=O)(=O)c1ccc(-c2cccc3ccc(N)nc23)c(-c2nn[nH]n2)c1S(N)(=O)=O [Example 430] | 0.0325 nM | 0.102 nM | 1.563 | 1.172 µM | 1.563 µM | 1.563 µM | 0.103 nM | 1.00 | 1.563 | – |
